From PubChem BioAssay AID248 (DTP/NCI, 2004)
“And” between values parts separate entries of the source, which are not always exact repeats. Identical values can stand only once. Toxic doses and inconclusive results are not listed. No stated cut-off is given here; in the data, active means T/C of 150% or more; inactive means T/C below 125%.

Test system: L1210 leukemia ip in BDF1 mice, survival T/C
Assay: NCI In Vivo Anticancer Drug Screen. Data for tumor model L1210 Leukemia (intraperitoneal) in B6D2F1 (BDF1) mice
Conditions: endpoint: mean survival time, higher = longer survival
Summary of the method: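 In this screen, tumor-bearing mice given compound are compared to those given vehicle, and their survival values are reported as a treated-to-control quotient.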

[1] = dose: 100.0 mg/kg/injection, schedule: Q01DX009 (ip), vehicle: Klucel (hydroxypropylcellulose) (HPC)
[2] = dose: 200.0 mg/kg/injection, schedule: Q01DX009 (ip), vehicle: Klucel (hydroxypropylcellulose) (HPC)
[3] = dose: 400.0 mg/kg/injection, schedule: Q01DX009 (ip), vehicle: Klucel (hydroxypropylcellulose) (HPC)
[4] = dose: 100.0 mg/kg/injection, schedule: Q04DX003 (ip), vehicle: saline with Tween-80
[5] = dose: 200.0 mg/kg/injection, schedule: Q04DX003 (ip), vehicle: saline with Tween-80
[6] = dose: 400.0 mg/kg/injection, schedule: Q04DX003 (ip), vehicle: saline with Tween-80
[7] = dose: 100.0 mg/kg/injection, schedule: Q01DX001 (ip), vehicle: saline
[8] = dose: 200.0 mg/kg/injection, schedule: Q01DX001 (ip), vehicle: saline
[9] = dose: 400.0 mg/kg/injection, schedule: Q01DX001 (ip), vehicle: saline
[10] = dose: 50.0 mg/kg/injection, schedule: Q01DX009 (ip), vehicle: saline
[11] = dose: 100.0 mg/kg/injection, schedule: Q01DX009 (ip), vehicle: saline
[12] = dose: 200.0 mg/kg/injection, schedule: Q01DX009 (ip), vehicle: saline
[13] = dose: 400.0 mg/kg/injection, schedule: Q01DX009 (ip), vehicle: saline
[14] = dose: 100.0 mg/kg/injection, schedule: Q01DX009 (ip), vehicle: saline with Tween-80
[15] = dose: 200.0 mg/kg/injection, schedule: Q01DX009 (ip), vehicle: saline with Tween-80
[16] = dose: 400.0 mg/kg/injection, schedule: Q01DX009 (ip), vehicle: saline with Tween-80
[17] = dose: 100.0 mg/kg/injection, schedule: Q01DX001 (ip), vehicle: saline with Tween-80
[18] = dose: 200.0 mg/kg/injection, schedule: Q01DX001 (ip), vehicle: saline with Tween-80
[19] = dose: 400.0 mg/kg/injection, schedule: Q01DX001 (ip), vehicle: saline with Tween-80

Measured: T/C

CCC(Cc1c[nH]c2ccccc12)[N+](=O)[O-] (configuration not stated)
inactive: [1] 104 % of control | [2] 111 % of control | [3] 113 % of control

Cc1nc2nc[nH]c(=O)c2nc1C
inactive: dose: 16.0 mg/kg/injection, schedule: Q01DX Z (ip), vehicle: methylcellulose (MC) 92 % of control | dose: 31.0 mg/kg/injection, schedule: Q01DX Z (ip), vehicle: methylcellulose (MC) 89 % of control | dose: 62.0 mg/kg/injection, schedule: Q01DX Z (ip), vehicle: methylcellulose (MC) 103 % of control | dose: 125.0 mg/kg/injection, schedule: Q01DX Z (ip), vehicle: methylcellulose (MC) 93 % of control and 97 % of control | dose: 250.0 mg/kg/injection, schedule: Q01DX Z (ip), vehicle: methylcellulose (MC) 107 % of control

O=NN(CCCl)C(=O)Nc1ccccc1Cl
inactive: dose: 100.0 mg/kg/injection, schedule: Q01DX001 (ip), vehicle: carboxymethylcellulose (CMC) 87 % of control

C=Cc1c(C)c(O)cc2c1CC[C@@H]1C(C)(C)[C@H](O)[C@H](O)C[C@@]21C
inactive: [4] 103 % of control | [5] 100 % of control | [6] 98 % of control

CCOC(=O)COc1ccc2c(C)c(CCN(CC)CC)c(=O)oc2c1
inactive: [7] 103 % of control | [8] 92 % of control | [9] 96 % of control

NCCOc1ccccn1
inactive: dose: 100.0 mg/kg/injection, schedule: Q04DX002 (ip), vehicle: saline 111 % of control | dose: 200.0 mg/kg/injection, schedule: Q04DX002 (ip), vehicle: saline 101 % of control | dose: 400.0 mg/kg/injection, schedule: Q04DX002 (ip), vehicle: saline 101 % of control

[Ni+2].[SH2+]C([SH2+])=Nc1ccccc1.[SH2+]C([SH2+])=Nc1ccccc1.c1ccc(C[P+](c2ccccc2)(c2ccccc2)c2ccccc2)cc1
inactive: dose: 6.0 mg/kg/injection, schedule: Q01DX009 (ip), vehicle: saline 94 % of control

NC(=O)Cc1cc(=O)[nH]c(=O)[nH]1
inactive: [10] 107 % of control | dose: 50.0 mg/kg/injection, schedule: Q04DX003 (ip), vehicle: saline with Tween-80 96 % of control | [11] 102 % of control | [4] 97 % of control | [12] 100 % of control | [5] 94 % of control | [13] 97 % of control | [6] 91 % of control

C[n+]1cccc2cccc(O)c21
inactive: dose: 100.0 mg/kg/injection, schedule: Q04DX002 (ip), vehicle: Klucel (hydroxypropylcellulose) (HPC) 115 % of control

CC(C)=CCC1=CC(=O)c2ccccc2C1=O
inactive: dose: 12.0 mg/kg/injection, schedule: Q01DX009 (ip), vehicle: water 97 % of control | dose: 25.0 mg/kg/injection, schedule: Q01DX009 (ip), vehicle: water 102 % of control | dose: 50.0 mg/kg/injection, schedule: Q01DX001 (ip), vehicle: water 96 % of control | dose: 50.0 mg/kg/injection, schedule: Q01DX009 (ip), vehicle: water 96 % of control | dose: 100.0 mg/kg/injection, schedule: Q01DX001 (ip), vehicle: water 102 % of control | dose: 100.0 mg/kg/injection, schedule: Q01DX009 (ip), vehicle: water 95 % of control | dose: 200.0 mg/kg/injection, schedule: Q01DX001 (ip), vehicle: water 105 % of control | dose: 400.0 mg/kg/injection, schedule: Q01DX001 (ip), vehicle: water 92 % of control

O=C(Nc1cc([N+](=O)[O-])ccc1Cl)SCc1ccccc1
inactive: [14] 102 % of control | [15] 98 % of control | [16] 102 % of control

O=c1oc2ccc3ccccc3c2c(-c2ccc(O)cc2)c1-c1ccccc1
inactive: [17] 89 % of control | [18] 92 % of control | [19] 92 % of control

Cc1ccc(N=NN(C)CC#N)cc1
inactive: dose: 25.0 mg/kg/injection, schedule: Q04DX003 (ip), vehicle: other 96 % of control | dose: 50.0 mg/kg/injection, schedule: Q04DX003 (ip), vehicle: other 96 % of control | dose: 100.0 mg/kg/injection, schedule: Q04DX003 (ip), vehicle: other 93 % of control and 105 % of control

CCOc1ccc(N=NS(=O)(=O)O)cc1
inactive: dose: 1.25 mg/kg/injection, schedule: Q01DX009 (ip), vehicle: saline with Tween-80 94 % of control | dose: 2.5 mg/kg/injection, schedule: Q01DX009 (ip), vehicle: saline with Tween-80 91 % of control | dose: 5.0 mg/kg/injection, schedule: Q01DX009 (ip), vehicle: saline with Tween-80 94 % of control

O=C1NC(=O)c2ncccc21
inactive: [14] 90 % of control | [4] 87 % of control | [15] 95 % of control | [5] 103 % of control | [16] 97 % of control | [6] 100 % of control

CCCC(O)S(=O)(=O)O (configuration not stated)
inactive: [10] 103 % of control | [11] 94 % of control | dose: 100.0 mg/kg/injection, schedule: Q04DX003 (ip), vehicle: acetone 102 % of control | [12] 97 % of control | dose: 200.0 mg/kg/injection, schedule: Q04DX003 (ip), vehicle: acetone 99 % of control | dose: 400.0 mg/kg/injection, schedule: Q04DX003 (ip), vehicle: acetone 93 % of control

CCc1c(C)c2n(c1C)C(=O)C=C2N(CC)CC
inactive: [7] 106 % of control | [8] 102 % of control | [9] 96 % of control

CSc1ccc(NC(=O)Nc2ccc(N=Nc3ccccc3)cc2)cc1
inactive: dose: 12.5 mg/kg/injection, schedule: Q01DX009 (ip), vehicle: saline with Tween-80 95 % of control | dose: 25.0 mg/kg/injection, schedule: Q01DX009 (ip), vehicle: saline with Tween-80 92 % of control | dose: 50.0 mg/kg/injection, schedule: Q01DX009 (ip), vehicle: saline with Tween-80 95 % of control | dose: 50.0 mg/kg/injection, schedule: Q04DX003 (ip), vehicle: Klucel (hydroxypropylcellulose) (HPC) 87 % of control | dose: 75.0 mg/kg/injection, schedule: Q01DX009 (ip), vehicle: saline with Tween-80 106 % of control | dose: 100.0 mg/kg/injection, schedule: Q01DX001 (ip), vehicle: other 89 % of control | dose: 115.0 mg/kg/injection, schedule: Q01DX009 (ip), vehicle: saline with Tween-80 92 % of control | dose: 170.0 mg/kg/injection, schedule: Q01DX009 (ip), vehicle: saline with Tween-80 90 % of control | dose: 200.0 mg/kg/injection, schedule: Q01DX001 (ip), vehicle: other 89 % of control

COc1cc(Cl)ccc1NC(=O)COc1ccc(Cl)cc1
inactive: [14] 92 % of control | [15] 92 % of control | [16] 86 % of control

Cc1ccccc1[P+](Cc1ccccc1)(c1ccccc1)c1ccccc1
inactive: dose: 5.0 mg/kg/injection, schedule: Q01DX001 (ip), vehicle: saline 105 % of control | dose: 10.0 mg/kg/injection, schedule: Q01DX001 (ip), vehicle: saline 103 % of control | dose: 20.0 mg/kg/injection, schedule: Q01DX001 (ip), vehicle: saline 100 % of control

CCN(CC)/N=N/c1[nH]ncc1C(N)=O
inactive: dose: 88.0 mg/kg/injection, schedule: Q01DX009 (ip), vehicle: saline with Tween-80 119 % of control | [17] 111 % of control | [4] 101 % of control | [18] 103 % of control | [5] 103 % of control | dose: 300.0 mg/kg/injection, schedule: Q01DX009 (ip), vehicle: saline with Tween-80 110 % of control | [19] 106 % of control | [6] 108 % of control

COC1OC(O)C(NC(=O)C(F)(F)F)CC1O (configuration not stated)
inactive: dose: 50.0 mg/kg/injection, schedule: Q01DX001 (ip), vehicle: saline 103 % of control | [7] 97 % of control | [8] 103 % of control | [9] 91 % of control

ClCCOCCOc1ccc(C2CCCCC2)cc1
inactive: [11] 106 % of control | [12] 97 % of control | [13] 90 % of control

O=C(Nc1ccc(Br)cc1)Oc1ccc(-c2ccccc2)cc1
inactive: dose: 50.0 mg/kg/injection, schedule: Q01DX009 (ip), vehicle: Klucel (hydroxypropylcellulose) (HPC) 95 % of control | [1] 95 % of control and 91 % of control | [2] 90 % of control | [3] 86 % of control and 87 % of control
